The text below walks through data of ChEMBL document CHEMBL1201862, “PubChem BioAssay data set” (2004).

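All cell lines were grown in 96-well plates and treated with compound for 48 hours. GI50 marks 50% less growth.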 Active and inactive are the calls of the source. Rule as the data show it: active = GI50 up to about 1.1 µM and inactive = higher. Some results are limits rather than exact numbers.

Some test systems named below: RPMI-8226; 786-0; HCC 2998; OVCAR-5; SNB-19; SF-268; M14; BT-549; U-251; CAKI-1; COLO 205; SN12C; MOLT-4; SK-MEL-2; Malme-3M; NCI-H226; HOP-92; UACC-257; NCI/ADR-RES; NCI-H522.
Common to all, as to experiment: DTP human tumour cell line panel, 48 h

`CC(C)COP(=O)(OCC(C)C)C(NS(=O)(=O)c1ccccc1)(C(F)(F)F)C(F)(F)F`: the GI50 was 1.66 µM (inactive) in the assay with RPMI-8226; 7.53 µM (inactive) with 786-0; 5.13 µM (inactive) in the assay with HCC 2998; 14.2 µM (inactive) in the assay on OVCAR-5; 10.2 µM (inactive) in the assay on SNB-19; 7.21 µM (inactive) in the assay with SF-268. Moreover, the GI50 was 12.8 µM (inactive) with M14; 4.03 µM (inactive) in the assay on BT-549; 3.77 µM (inactive) in the assay on U-251; 5.52 µM (inactive) with CAKI-1; 1.94 µM (inactive) with COLO 205; 3.22 µM (inactive) in the assay with SN12C. In addition, the GI50 in the assay on MOLT-4 was 1.41 µM (inactive); in the assay on SK-MEL-2 it was 3.4 µM (inactive); in the assay on Malme-3M it was 11.9 µM (inactive); with NCI-H226 it was 16.9 µM (inactive); in the assay with HOP-92, 2.2 µM (inactive); with UACC-257, 4.24 µM (inactive). In addition, the results for the GI50 in the assay with NCI/ADR-RES and in the assay on NCI-H522 were 4.13 µM (inactive) and 4.05 µM (inactive), respectively.

For `NCCCN(CCCN)CCc1cn(C(=O)c2ccccc2)cn1`, the GI50 is 2.38 µM (inactive) with RPMI-8226; 8.59 µM (inactive) in the assay on 786-0; 4.52 µM (inactive) with HCC 2998; 16.2 µM (inactive) in the assay on OVCAR-5; 15.1 µM (inactive) with SNB-19; 7.8 µM (inactive) in the assay on SF-268. Also, the GI50 was 4.94 µM (inactive) with M14; 12.5 µM (inactive) in the assay with BT-549; 14.4 µM (inactive) in the assay on U-251; 4.46 µM (inactive) with CAKI-1; 3.14 µM (inactive) in the assay on COLO 205; 6.41 µM (inactive) in the assay with SN12C. Further, the GI50 with MOLT-4 is 2.19 µM (inactive); with SK-MEL-2, 9.1 µM (inactive); in the assay on Malme-3M, 14.7 µM (inactive); with NCI-H226, 9.64 µM (inactive); in the assay on HOP-92 it was 4.05 µM (inactive); in the assay with UACC-257, 9.2 µM (inactive). For the same molecule, the GI50 was 14.4 µM (inactive) in the assay on NCI/ADR-RES and 10 µM (inactive) with NCI-H522.

`COc1ccc2nc(-c3cccc(N(C)C)c3)cc(O)c2c1`: the concentration for 50% growth inhibition (GI50) with RPMI-8226 was 0.318 µM (active); in the assay with 786-0 it was 0.408 µM (active); in the assay on HCC 2998, 0.608 µM (active); in the assay with OVCAR-5, 0.541 µM (active); with SNB-19 it was 0.451 µM (active); in the assay on SF-268, 0.378 µM (active). The GI50 was 1.15 µM (inactive) with BT-549; 0.247 µM (active) in the assay with U-251; 0.327 µM (active) in the assay on CAKI-1; 0.198 µM (active) in the assay with COLO 205; 0.353 µM (active) in the assay with SN12C; 0.344 µM (active) in the assay with MOLT-4. Besides, the GI50 in the assay with SK-MEL-2 was 0.314 µM (active); in the assay on Malme-3M, 0.177 µM (active); in the assay with NCI-H226, 0.266 µM (active); with HOP-92 it was 0.469 µM (active); with UACC-257, 0.485 µM (active); with NCI/ADR-RES, 0.185 µM (active). In addition, the GI50 in the assay with NCI-H522 is 0.204 µM (active).

`O=C(O)c1cc2ccccc2c(O)c1O`: the GI50 with RPMI-8226 is > 52.2 µM (inactive); in the assay with 786-0, 14.3 µM (inactive); in the assay on HCC 2998, 18.8 µM (inactive); with OVCAR-5, 16.9 µM (inactive); with SNB-19, 17.9 µM (inactive); with SF-268, 17.2 µM (inactive). Also, the GI50 in the assay on M14 was 4.79 µM (inactive); with BT-549 it was 16.1 µM (inactive); in the assay with U-251, 16.8 µM (inactive); with CAKI-1, 17.3 µM (inactive); in the assay on COLO 205, 16.8 µM (inactive); in the assay with SN12C it was 16.6 µM (inactive). Moreover, the GI50 in the assay on MOLT-4 was 27.5 µM (inactive); with SK-MEL-2, 1.03 µM (active); in the assay on Malme-3M, 1.8 µM (inactive); with NCI-H226, 13.7 µM (inactive); with HOP-92, > 40.1 µM (inactive); with UACC-257, 9.68 µM (inactive). For the same molecule, the GI50 is 19.4 µM (inactive) in the assay on NCI/ADR-RES and 15.1 µM (inactive) with NCI-H522.

With `O=C(NCCCCl)c1c(O)c2ccccc2[nH]c1=O`, the GI50 in the assay on RPMI-8226 is > 100 µM (inactive); in the assay with 786-0, > 61 µM (inactive); in the assay with HCC 2998, > 76.2 µM (inactive); in the assay on OVCAR-5 it was > 100 µM (inactive); in the assay with SNB-19, > 100 µM (inactive); in the assay on SF-268 it was > 72.1 µM (inactive). For the same molecule, the GI50 is > 100 µM (inactive) in the assay with M14; > 78 µM (inactive) in the assay with BT-549; > 100 µM (inactive) with U-251; > 100 µM (inactive) in the assay with CAKI-1; > 100 µM (inactive) in the assay with COLO 205; > 100 µM (inactive) in the assay on SN12C. Besides, the GI50 is > 100 µM (inactive) in the assay with MOLT-4; > 94 µM (inactive) in the assay on SK-MEL-2; > 100 µM (inactive) with Malme-3M; > 100 µM (inactive) in the assay with NCI-H226; > 43.3 µM (inactive) in the assay with HOP-92; > 100 µM (inactive) with UACC-257. Also, the GI50 with NCI/ADR-RES was > 71 µM (inactive); with NCI-H522, > 65.5 µM (inactive).

On to `Nc1ncnc2c1nc(Cl)n2C1OC(CO)C(O)C1O` (stereo not given), for which the GI50 in the assay with RPMI-8226 was 1.44 µM (inactive); in the assay on 786-0, 1.79 µM (inactive); with HCC 2998, 0.556 µM (active); with OVCAR-5 it was 2.28 µM (inactive); in the assay on SNB-19 it was 22.1 µM (inactive); in the assay with SF-268, 12.2 µM (inactive). Also, the concentration for 50% growth inhibition (GI50) with M14 was 0.9 µM (active); in the assay with BT-549, 3.15 µM (inactive); in the assay with U-251, 7.59 µM (inactive); with CAKI-1, 1.21 µM (inactive); in the assay with COLO 205, 1.11 µM (active); with SN12C, 1.88 µM (inactive). The GI50 in the assay with MOLT-4 was 0.474 µM (active); in the assay on SK-MEL-2, 2.02 µM (inactive); in the assay with Malme-3M it was 27.2 µM (inactive); in the assay with NCI-H226, 1.63 µM (inactive); in the assay on HOP-92 it was 9.08 µM (inactive); with UACC-257 it was 4.48 µM (inactive). Besides, the GI50 in the assay with NCI/ADR-RES was 1.41 µM (inactive); in the assay on NCI-H522, 0.546 µM (active).

As to `CCCCCCCCCCCCCCC(O)C[N+](C)(CCO)CCO` (stereo not given), the GI50 was 1.92 µM (inactive) in the assay on RPMI-8226; 1.98 µM (inactive) in the assay with 786-0; 1.73 µM (inactive) with HCC 2998; 2.46 µM (inactive) with OVCAR-5; 1.49 µM (inactive) in the assay on SNB-19; 1.89 µM (inactive) in the assay on SF-268. The GI50 with M14 is 1.59 µM (inactive); in the assay on BT-549 it was 3.05 µM (inactive); with U-251, 1.53 µM (inactive); in the assay on CAKI-1 it was 1.32 µM (inactive); in the assay on COLO 205, 1.72 µM (inactive); with SN12C it was 4.7 µM (inactive). For the same molecule, the GI50 in the assay on MOLT-4 was 1.91 µM (inactive); in the assay on SK-MEL-2, 7.31 µM (inactive); in the assay with Malme-3M, 2.06 µM (inactive); with NCI-H226, 2.04 µM (inactive); with HOP-92, 0.885 µM (active); in the assay on UACC-257 it was 11.1 µM (inactive). For the same molecule, the GI50 in the assay with NCI/ADR-RES is 20.3 µM (inactive); in the assay on NCI-H522, 1.64 µM (inactive).

On to `Cc1nc(C)c(C(=O)NNC(N)=S)cc1C(=O)NNC(N)=S`, for which the GI50 in the assay with RPMI-8226, in the assay on 786-0, in the assay with HCC 2998, in the assay on OVCAR-5, in the assay on SNB-19 and with SF-268 was > 100 µM (inactive) each time. Besides, the GI50 with M14, in the assay on BT-549, in the assay with U-251, in the assay with CAKI-1, with COLO 205 and with SN12C was > 100 µM (inactive) in each case. In addition, the GI50 in the assay with MOLT-4, with SK-MEL-2, in the assay with NCI-H226, in the assay on HOP-92, in the assay on UACC-257 and in the assay with NCI/ADR-RES was > 100 µM (inactive) in each case. For the same molecule, the GI50 in the assay on NCI-H522 is > 100 µM (inactive).

Take `O=C(/C=C/c1ccc(Cl)cc1)c1nc2ccccc2[nH]1`: the GI50 with RPMI-8226 is 2.19 µM (inactive); with 786-0, 13 µM (inactive); with HCC 2998 it was 12.8 µM (inactive); with OVCAR-5, 95.7 µM (inactive); in the assay on SNB-19, 34.6 µM (inactive); with SF-268 it was 14.2 µM (inactive). The GI50 with M14 is 31.8 µM (inactive); with BT-549, 32.9 µM (inactive); in the assay on CAKI-1, 3.44 µM (inactive); in the assay on COLO 205, 16.6 µM (inactive); in the assay with SN12C, 37.2 µM (inactive); with SK-MEL-2, > 100 µM (inactive). The GI50 in the assay on Malme-3M is > 100 µM (inactive); with NCI-H226 it was 27.5 µM (inactive); in the assay on HOP-92 it was > 100 µM (inactive); with UACC-257 it was 29 µM (inactive); with NCI/ADR-RES, 42.5 µM (inactive); in the assay with NCI-H522, 28.2 µM (inactive).

As for `O=C1C(N2CCCC2)=CC(=O)c2c(O)c(N3CCCC3)c(Cl)c(O)c21`, the GI50 in the assay with RPMI-8226, with 786-0, in the assay on HCC 2998, in the assay with SNB-19, in the assay with SF-268 and in the assay with M14 was > 10 µM (inactive) each time. Also, the GI50 in the assay on BT-549, in the assay with U-251, in the assay on CAKI-1, in the assay on COLO 205, with SN12C and in the assay on MOLT-4 was > 10 µM (inactive) throughout. Besides, the GI50 in the assay on SK-MEL-2, in the assay on Malme-3M, in the assay with NCI-H226, in the assay with HOP-92, in the assay on UACC-257 and with NCI/ADR-RES was > 10 µM (inactive) in each case. Also, the GI50 in the assay with NCI-H522 was > 10 µM (inactive).

By GI50 is commonly meant the concentration at which growth is held to half of that of the control.
